PMC6312359, “Diisopropylphenyl-imidazole (DII): A new compound that exerts anthelmintic activity through novel molecular mechanisms” (PLoS Neglected Tropical Diseases, 2018)
In brackets after ≈: the same amount, converted by molar mass. Several values for one entry are separate records, joined by “and”; a condition that tells them apart may be missing. Equal values may be shown once. Entries after “also recorded” stand apart in the source; their conditions may differ.

How the values were obtained:
C. elegans [1] = experiment: Body length measurements; type: in vivo, Caenorhabditis elegans; settings: 600 μM, 2 h
Description: Vehicle (0.75% DMSO) was used as a control. After 2 h, images were acquired and body length was measured using FIJI-ImageJ software. At least three independent experiments were analyzed.

C. elegans [2] = experiment: Recovery assays; type: in vivo, Caenorhabditis elegans; settings: 600 μM, 4 and 8 h of exposure, scored 24 h later
Description: To evaluate the recovery capacity of worms treated with DII, ~100 L4 worms were transferred to NGM plates containing DII (600 μM). After 4 and 8 h of exposure, those animals that survived were transferred to regular NGM plates. Worm viability was scored 24 h later. Results are expressed as the percentage of alive animals 24 h after being transferred to regular NGM plates. The experiment was independently repeated three times.

[3] = system: Escherichia coli ATCC 25922; experiment: Minimum inhibitory and bactericidal concentrations, microdilution; type: cell-based; settings: 24 h at 37°C
Description: (§1) The strains used in this study were Escherichia coli ATCC 25922 and Staphylococcus aureus ATCC 25923, kindly provided by Dr. Ziegler (Bacillus Genetic Stock Center, The Ohio State University). Stocks were stored in Mueller Hinton Broth (MHB, Biokar Diagnostics, France) supplemented with glycerol 20% at -70°C. Before running each test, the strains were incubated for 48 h at 37°C in MHB. Finally, the bacterial strains were sub-cultured in MHB at 37°C for 24 h. The solutions of antimicrobial agents and imidazolium salts were prepared following the Clinical and Laboratory Standards Institute (CLSI) guidelines for determination of Minimum Inhibitory Concentrations by the microdilution method (CLSI 2009). […] Cultures were incubated as described above and adjusted to OD625nm ~ 0.08–0.13 by the direct colony suspension method in saline water and finally adjusted to 2–8 10^5 CFU/ml by diluting 1:150 in MHB before testing. A volume of 100 μl of each sample dilution in saline water was transferred to the microplate well. Finally, an equal volume of the inoculum was added. The MIC was the lowest concentration at which there was no visible growth when compared with controls after 24 h at 37°C. To assess the minimum bactericidal concentration (MBC), 20 μl aliquots were taken from the wells where no visible growth was observed, seeded on petri dishes and covered with MH agar (MHA) at 45°C. The compounds were considered bactericidal at the concentration at which no visible colony was observed on the plate after 24 h at 37°C. All conditions were run at least in duplicate. The results were obtained from at least 3 independent experiments.

[4] = system: Staphylococcus aureus ATCC 25923; experiment: as above; type: cell-based; settings: ATCC25923, 24 h at 37°C
Description: as §1

C. elegans [5] = experiment: Pharyngeal pumping; type: in vivo, Caenorhabditis elegans; settings: wild-type and unc-29 young adults, two hours of exposure; listed as DII
Description: Supplementary file pntd.0007021.s006.tif: S6 Fig DII effects on pharyngeal pumping. Wild-type and unc-29 young adult worms (24 h past L4) were transferred to bacteria-seeded NGM plates containing different DII concentrations. After two hours of DII exposure, the number of contractions in the terminal bulb of the pharynx (pumps per minute) was counted using a stereomicroscope at 50x magnification. […] Bars represent the mean ± SEM from n = 20 animals per condition. Statistical differences compared to the non-treated condition (0 μM DII) within the same strain (ns: no statistically significant p>0.05, ***p<0.001). (TIF) Click here for additional data file.

C. elegans [6] = experiment: Larvicidal activity assays
Description: Three concentrations of drugs were used (100, 300 and 600 μM) and each concentration was repeated in triplicate. After 24, 48 and 72 h alive worms were scored and the results were expressed as the percentage of living worms related to the initial number of L1 animals. This experiment was independently repeated three times.

C. elegans [7] = experiment: Screening imidazole compounds: worm survival; type: in vivo, Caenorhabditis elegans; settings: 150 μg/ml, 72 h, 20°C, young adult wild-type worms, liquid medium (S-Basal) with E. coli OP50
Description: 100–150 young adult wild-type worms were exposed to these compounds (150 μg/ml) in liquid medium (S-Basal) containing E. coli OP50. Micromolar concentrations for each compound are: 487 μM for 1, 428 μM for 2, 410 μM for 3, 375 μM for 4, 789 μM for 5, 735 μM for 6, 389 μM for 7, 319 μM for 8, 263 μM for 9, 806 μM for 10 and 657 μM for 11. Compounds were dissolved in water or DMSO according to their solubility. After 72 h, animal survival was analyzed. An animal was considered dead if it made no movement in response to gentle prodding with a worm pick. At least three independent experiments were analyzed.
We exposed 100–150 young adult worms to these compounds in liquid medium (S-Basal) containing the bacteria E. coli OP50 as a food source. After 72 h at 20°C, we analyzed worm survival (Fig 1B). […] The drug concentration chosen for this screening was 150 μg/ml, which is similar to those used in other screening studies. The corresponding molar concentration for each compound is detailed in Materials and Methods. Depending on their solubility properties, the compounds were dissolved either in water or DMSO (up to 0.75% final concentration).

CC(C)c1cccc(C(C)C)c1-n1ccnc1 [Compound 11]
body length (C. elegans [1]): no significant changes | recovery of survivors after transfer to regular NGM plates (C. elegans [2]): reversible | MIC E. coli ([3]; listed as DII (11)): 256 µg/mL (≈ 1120 µM) | MBC ([3]; Escherichia coli, ATCC25922): > 256 µg/mL | MIC ([3]; Escherichia coli, ATCC25922): 256 µg/mL and 1110 µM | MBC ([4]; read-out: MBC S. aureus): > 256 µg/mL | MIC ([4]; read-out: MIC S. aureus): 256 µg/mL (≈ 1120 µM) | pharyngeal pumping rate (C. elegans [5]): inhibits the pharyngeal pumping; also recorded: decreases pharyngeal pumping rate | larvicidal effect on unc-29 null mutant larvae (C. elegans [6]; 600 μM): as sensitive to the larvicidal effects of DII as the wild-type strain | larvicidal effect on unc-38, unc-63, lev-8 and lev-1 larvae (C. elegans [6]; 600 μM, 24, 48 and 72 h): sensitive to DII | larval viability, wild-type L1 (C. elegans [6]; 100, 300 and 600 μM, 24, 48 and 72 h): significant decrease | worm death (C. elegans [7]): 100%
